“Also recorded” adds a separate entry of the source. Where two headings read alike, the source gives them in different places.
Columns and labels:
SSTR2 [1] = assay: Bias factor (β value), Gi cAMP inhibition versus β-arrestin recruitment; assay type: cell-based, human
Description: (§1) The levels of the intracellular 3′, 5′-cyclic AMP (cAMP) were measured by the GloSensor cAMP assay (Promega) as described in the previous studies[28],[41] which has been widely used. The human full-length SSTRs and mutants were cloned into the pcDNA3.1+ vector with a HA signal sequence followed by a Flag tag at the N-terminus. […] Cells were then co-transfected with SSTR wild-type or mutants and GloSensor plasmids. After 24 h of transfection, the cells were dissociated with TrypLE™ Express Enzyme (1X) (Thermo Fisher Scientific) and collected by centrifugation at 500 × g for 5 min. Then the collected cells were suspended in Hank’s balanced salt solution [HBSS (Thermo Fisher Scientific)] supplemented with […] potassium salt solution (YEASEN), and then the suspension cells were seeded into 96-well plates with 90 μl/well. After incubating at room temperature for 40 min, 5 μM forskolin and ligands diluted in HBSS were added to each well and the plates were incubated at room temperature for 15 min. […] signals were measured using the Synergy H1 microplate reader (BioTek) and the data presented are means of at least three independent experiments.
The NanoBiT β-arrestin 1 recruitment assays were carried out according to the method described previously. […] Human full-length SSTR wild-type and mutant vectors were C-terminally fused with a 15-amino acid flexible linker and the small fragment (SmBiT). HEK293 cells were seeded into six-well microplates at a density of 1.0 × 10^6 cells/well and cultured for 24 h at 37 °C with 5% CO2. After that, cells were co-transfected with pcDNA3.1+ vectors encoding SSTR wild-type or mutants and human β-arrestin 1. After transfecting for 24 h, the transfected cells were suspended and seeded into white 96-well plates, and then cultured at 37 °C overnight. After that the medium in each well was exchanged for 90 μl of 0.01% bovine serum albumin containing 20 μl of 50 μM coelenterazine h (Carbosynth) diluted in the HBSS assay buffer and incubated for 40 min at room temperature. Then, ligands diluted in the assay buffer was added to each well and the luminescence intensity was measured using the Synergy H1 microplate reader and detected at room temperature in a time period. All data presented are means of at least three independent experiments.
All data in this study were analyzed using GraphPad Prism 7 and were expressed as the error bars and the standard error of means ± SEM from at least n = 3 biologically independent experiments performed in triplicate. All curve data were normalized to the maximal wild-type and processed using a sigmoidal dose response curve in GraphPad Prism 7. Statistical differences between conditions were determined by one-way of variance ANOVA with Dunnett’s test or T-test.

GH3 cells = assay: Cell apoptosis assay, Annexin V-FITC/PI flow cytometry, GH3 cells overexpressing SSTR2, 48 h; assay type: cell-based, rat
Description: The rat pituitary GH3 cells (ATCC, CCL-82.1) were seeded in 12-well plates at 1.5 × 10^5/well. […] Then, the cells were collected for the apoptosis assay according to the instruction of the Annexin V-FITC/PI apoptosis detection kit (BD Biosciences). Briefly, the cells were washed with cold PBS and resuspended in 1 × binding buffer. Then, 5 μl of Annexin V-FITC was added and incubated for 10 min and stained with 5 μl of PI for 5 min in the dark at room temperature. All samples were acquired by a Novocyte flow cytometer (ACEA Biosciences, China), and data were analyzed with NovoExpress^TM software.

SSTR3 mutants [2] = target: SSTR3 mutants (Homo sapiens, UniProt P32745); assay: SSTRs Gi-mediated cAMP inhibition, GloSensor, HEK293 (SSTR3 mutants); assay type: cell-based; design: Bottom / Top / Span / Top (best-fit): unit not given here
Description: as §1

SSTR3 mutants [3] = target: T1, SSTR3 mutants (Homo sapiens, UniProt P32745, H192T); assay: as above; assay type: cell-based; design: Bottom / Top / Span / Top (best-fit): unit not given here
T1 construct: The human full-length SSTRs and mutants were cloned into the pcDNA3.1+ vector; expressed in transfected cells; host or cells: HEK293 (ATCC, CRL-1573)
Description: as §1

SSTR2 [4] = target: SSTR2 (Homo sapiens, UniProt P30874); assay: Bystander BRET endosomal trafficking (β-arrestin 1-Nluc, FYVE-mVenus), HEK293 (SSTR2 wild-type); assay type: cell-based; design: The human full-length SSTRs and mutants were cloned into the pcDNA3.1+ vector; expressed in transfected cells; host or cells: HEK293; conditions: for Bottom / LogEC50 / Span / Top: best-fit value;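 for all read-outs here: HEK293 cells coexpressing Nluc-tagged β-arrestin 1 and mVenus-fused FYVE endosomal marker, bystander BRET ratio read after ligand addition, coelenterazine h substrate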
Description: Wild-type or mutant SSTR2, β-arrestin 1-Nluc and FYVE-mVenus were co-transfected in HEK293 cells at a ratio of 1:0.5:4 on six-well plates. The next day, the transfected cells were plated on white 96-well and incubated overnight, and then cells were incubated with 90 µL HBSS containing 20 mM HEPES and coelenterazine h (5 µM) at room temperature for 40 min. After incubation, ligand was added and the signal was measured using the Synergy H1 microplate reader (BioTek) to determine a BRET ratio.

SSTR2 mutants [5] = target: SSTR2 mutants (Homo sapiens, UniProt P30874, N276A); assay: Bystander BRET endosomal trafficking (β-arrestin 1-Nluc, FYVE-mVenus), HEK293 (SSTR2 mutants); conditions: best-fit value;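 note: Read-out is the BRET ratio between Nluc-fused β-arrestin 1 and the early endosome marker FYVE-mVenus, measured after ligand addition with coelenterazine h as substrate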
SSTR2 mutants [6] = target: SSTR2 mutants (Homo sapiens, UniProt P30874, F294A); assay: as above; conditions: for Bottom: best-fit value
[7] = WT-1 (F265A, I284A, K291A blocks)
[8] = WT-2 (F265A, I284A, K291A blocks)
[9] = WT-2 of N276A block = WT-3 of F294A block
[10] = WT-3 (F265A, I284A, K291A blocks)
[11] = WT-3 of N276A block = WT-2 of F294A block

T1 sequence (P32745 whole entry H192T): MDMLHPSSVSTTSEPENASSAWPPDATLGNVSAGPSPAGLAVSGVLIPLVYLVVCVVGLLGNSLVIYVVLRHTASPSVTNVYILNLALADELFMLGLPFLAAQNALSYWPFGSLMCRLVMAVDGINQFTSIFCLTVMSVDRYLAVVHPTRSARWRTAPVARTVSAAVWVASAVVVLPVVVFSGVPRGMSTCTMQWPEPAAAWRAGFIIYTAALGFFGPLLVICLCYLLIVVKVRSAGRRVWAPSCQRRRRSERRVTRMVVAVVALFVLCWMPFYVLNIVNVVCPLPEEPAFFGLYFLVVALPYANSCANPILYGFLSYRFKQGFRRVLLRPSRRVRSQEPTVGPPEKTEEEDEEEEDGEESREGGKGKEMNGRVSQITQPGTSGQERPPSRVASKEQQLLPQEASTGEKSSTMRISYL
SSTR2 mutants (Homo sapiens, UniProt P30874, F294A), sequence (P30874 whole entry F294A): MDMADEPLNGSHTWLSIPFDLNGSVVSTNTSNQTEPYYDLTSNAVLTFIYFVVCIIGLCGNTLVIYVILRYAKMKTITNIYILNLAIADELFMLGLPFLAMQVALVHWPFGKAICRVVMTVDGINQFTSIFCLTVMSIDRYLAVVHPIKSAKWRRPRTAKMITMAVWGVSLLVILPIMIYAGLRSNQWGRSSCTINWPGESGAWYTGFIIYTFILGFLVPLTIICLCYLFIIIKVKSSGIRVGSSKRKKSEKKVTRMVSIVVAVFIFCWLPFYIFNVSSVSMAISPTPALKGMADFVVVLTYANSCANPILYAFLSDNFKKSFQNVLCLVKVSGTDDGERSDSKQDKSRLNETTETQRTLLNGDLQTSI
SSTR2 (Homo sapiens, UniProt P30874), sequence (P30874 whole entry, the tested form may be a part): as the sequence (P30874 whole entry F294A) above, with A294F counted along it
SSTR3 mutants (Homo sapiens, UniProt P32745), sequence (P32745 whole entry N104V): as the sequence (P32745 whole entry H192T) above, with N104V, T192H counted along it
SSTR2 mutants (Homo sapiens, UniProt P30874, N276A), sequence (P30874 whole entry N276A, the tested form may be a part): as the sequence (P30874 whole entry F294A) above, with N276A, A294F counted along it

N#Cc1cccc(-c2ccc3ncc(-c4cc(F)cc(F)c4)c(N4CCC(N)CC4)c3c2)c1O [paltusotine]
Effect of microswitch mutations (SSTR2 [1]; CWxP, PIF, DRY and NPxxY motif mutants versus wild-type SSTR2): decreased the potency of β-arrestin recruitment more markedly than the activation ability of Gi signaling
Effect of mutants on both signals (SSTR2 [1]; D122(3.32) and Q126(3.36) mutants): markedly affected both β-arrestin and Gi signal
Signal bias (SSTR2 [1]; SSTR2, compared with octreotide): more G protein-biased ligand than octreotide; also recorded: better G-protein-biased agonist of SSTR2 compared with octreotide
Apoptotic rate versus octreotide (GH3 cells): increased apoptotic rate
Proapoptotic activity (GH3 cells): able to activate proapoptotic pathways
Emax (SSTR3 mutants [2]; HEK293): 90.7 ± 7.93%
Fold of WT (SSTR3 mutants [2]; Suppl. Tables 4/5, SSTR3 N101(2.64)V): 1.31
EC50 (SSTR3 mutants [2]; Suppl. Tables 4/5, SSTR3 N101(2.64)V, n=3): 83.7 ± 1.31 nM
Bottom (SSTR3 mutants [2]; best-fit, SSTR3 N101V-1): 2.574
EC50 (SSTR3 mutants [2]; best-fit, SSTR3 N101V-1): 85.3 nM
LogEC50 (SSTR3 mutants [2]; best-fit, SSTR3 N101V-1): -7.069
Span (SSTR3 mutants [2]; best-fit, SSTR3 N101V-1): 181.5
Bottom (SSTR3 mutants [2]; best-fit, SSTR3 N101V-2): 5.233
LogEC50 (SSTR3 mutants [2]; best-fit, SSTR3 N101V-2): -7.01
Span (SSTR3 mutants [2]; best-fit, SSTR3 N101V-2): 137.4
Bottom (SSTR3 mutants [2]; best-fit, SSTR3 N101V-3): 5.233
LogEC50 (SSTR3 mutants [2]; best-fit, SSTR3 N101V-3): -7.01
Span (SSTR3 mutants [2]; best-fit, SSTR3 N101V-3): 137.4
EC50 (SSTR3 mutants [3]): 58.1 ± 1.43 nM
Emax (SSTR3 mutants [3]; HEK293): 108 ± 8.99%
Fold of WT (SSTR3 mutants [3]; Suppl. Tables 4/5, SSTR3 H192(45.51)T): 0.91
Bottom (SSTR3 mutants [3]; best-fit, SSTR3 H192T-1): 14.85
LogEC50 (SSTR3 mutants [3]; best-fit, SSTR3 H192T-1): -7.173
Span (SSTR3 mutants [3]; best-fit, SSTR3 H192T-1): 475
Top (SSTR3 mutants [3]; best-fit, SSTR3 H192T-1): 489.8
EC50 (SSTR3 mutants [3]; best-fit, SSTR3 H192T-1, read-out: EC50): 67.2 nM
Bottom (SSTR3 mutants [3]; best-fit, SSTR3 H192T-2): 37.09
LogEC50 (SSTR3 mutants [3]; best-fit, SSTR3 H192T-2): -7.251
Span (SSTR3 mutants [3]; best-fit, SSTR3 H192T-2): 569.9
Top (SSTR3 mutants [3]; best-fit, SSTR3 H192T-2): 607
EC50 (SSTR3 mutants [3]; best-fit, SSTR3 H192T-2, read-out: EC50): 56 nM
Fold of WT (SSTR2 [4]; Bystander BRET EC50, SSTR2-WT): 1.00
EC50 (SSTR2 [4]; EC50, Bystander BRET, SSTR2-WT, n=6): 122 ± 1.31 nM
EC50 (SSTR2 [4]; EC50, best-fit value, WT-1 (F265A, I284A, K291A blocks)): 40.4 nM
EC50 (SSTR2 [4]; EC50, best-fit value, WT-1 (N276A, F294A blocks)): 250 nM
EC50 (SSTR2 [4]; EC50, best-fit value, WT-2 (F265A, I284A, K291A blocks)): 131 nM
EC50 (SSTR2 [4]; EC50, best-fit value, WT-2 of N276A block = WT-3 of F294A block): 219 nM
EC50 (SSTR2 [4]; EC50, best-fit value, WT-3 (F265A, I284A, K291A blocks)): 58.5 nM
EC50 (SSTR2 [4]; EC50, best-fit value, WT-3 of N276A block = WT-2 of F294A block): 202 nM
Emax (SSTR2 [4]; HEK293): 100%
Bottom (best-fit) (SSTR2 [4]; WT-1 (run 1)): 1.413
LogEC50 (best-fit) (SSTR2 [4]; WT-1 (run 1)): -7.394
Span (best-fit) (SSTR2 [4]; WT-1 (run 1)): 100
Top (best-fit) (SSTR2 [4]; WT-1 (run 1)): 101.4
Bottom (best-fit) (SSTR2 [4]; WT-2 (run 2)): -7.096
LogEC50 (best-fit) (SSTR2 [4]; WT-2 (run 2)): -6.882
Span (best-fit) (SSTR2 [4]; WT-2 (run 2)): 113.5
Top (best-fit) (SSTR2 [4]; WT-2 (run 2)): 106.4
Bottom (best-fit) (SSTR2 [4]; WT-3 (run 3)): -1.006
LogEC50 (best-fit) (SSTR2 [4]; WT-3 (run 3)): -7.233
Span (best-fit) (SSTR2 [4]; WT-3 (run 3)): 104.3
Top (best-fit) (SSTR2 [4]; WT-3 (run 3)): 103.3
Bottom (SSTR2 [4]; [7]): 1.413
LogEC50 (SSTR2 [4]; [7]): -7.394
Span (SSTR2 [4]; [7]): 100
Top (SSTR2 [4]; [7]): 101.4
Bottom (SSTR2 [4]; WT-1 (N276A, F294A blocks)): -1.996
LogEC50 (SSTR2 [4]; WT-1 (N276A, F294A blocks)): -6.603
Span (SSTR2 [4]; WT-1 (N276A, F294A blocks)): 108.2
Top (SSTR2 [4]; WT-1 (N276A, F294A blocks)): 106.2
Bottom (SSTR2 [4]; [8]): -7.096
LogEC50 (SSTR2 [4]; [8]): -6.882
Span (SSTR2 [4]; [8]): 113.5
Top (SSTR2 [4]; [8]): 106.4
Bottom (SSTR2 [4]; [9]): -1.129
LogEC50 (SSTR2 [4]; [9]): -6.66
Span (SSTR2 [4]; [9]): 107.2
Top (SSTR2 [4]; [9]): 106.1
Bottom (SSTR2 [4]; [10]): -1.006
LogEC50 (SSTR2 [4]; [10]): -7.233
Span (SSTR2 [4]; [10]): 104.3
Top (SSTR2 [4]; [10]): 103.3
Bottom (SSTR2 [4]; [11]): -1.982
LogEC50 (SSTR2 [4]; [11]): -6.696
Span (SSTR2 [4]; [11]): 107.7
Top (SSTR2 [4]; [11]): 105.7
Bottom (SSTR2 mutants [5]; N276A-1 (run 1)): 0.05559
Bottom (SSTR2 mutants [5]; N276A-2 (run 2)): -0.1543
Bottom (SSTR2 mutants [5]; N276A-3 (run 3)): -2.441
EC50 (SSTR2 mutants [6]): 2094 ± 1.18 nM
Emax (SSTR2 mutants [6]; HEK293): 95.1 ± 4.53%
Bottom (SSTR2 mutants [6]; F294A-1 (run 1)): 0.7189
Bottom (SSTR2 mutants [6]; F294A-2 (run 2)): -2.342
Bottom (SSTR2 mutants [6]; F294A-3 (run 3)): -0.7874
